Reference: ChEMBL document CHEMBL5728984, “Tricyclic inhibitors of poly(ADP-ribose)polymerase” (2022)

Biological target: Poly [ADP-ribose] polymerase 1 (Homo sapiens, UniProt P09874)
Assay: Enzyme Assay: Inhibition of PARP-1 enzymatic activities was measured using an HT Universal Colorimetric PARP Assay Kit (Trevigen, catalogue #4677-096-K) following the standard procedures. Serial dilutions of PARP compounds were added to appropriate wells. The compound was incubated with PARP enzyme at RT for 10 min, and the reaction was initiated by addition of the PARP substrate cocktail, Each concentration of compound was tested in triplicate wells. After 15 min reaction, the reaction was stopped, and the Strep-HRP was added into each well and incubated for 1 h at RT. After addition of TACS-Sapphire colorimetric substrate and incubated in dark for 15 min, the OD450 was read out with an EnVision instrument. IC50 values (the concentration at which 50% of the enzyme activity is inhibited) were calculated, which are determined over a range of different concentrations, normally from 10 uM to 0.1 nM.

Sequence of Poly [ADP-ribose] polymerase 1 (P09874 whole entry): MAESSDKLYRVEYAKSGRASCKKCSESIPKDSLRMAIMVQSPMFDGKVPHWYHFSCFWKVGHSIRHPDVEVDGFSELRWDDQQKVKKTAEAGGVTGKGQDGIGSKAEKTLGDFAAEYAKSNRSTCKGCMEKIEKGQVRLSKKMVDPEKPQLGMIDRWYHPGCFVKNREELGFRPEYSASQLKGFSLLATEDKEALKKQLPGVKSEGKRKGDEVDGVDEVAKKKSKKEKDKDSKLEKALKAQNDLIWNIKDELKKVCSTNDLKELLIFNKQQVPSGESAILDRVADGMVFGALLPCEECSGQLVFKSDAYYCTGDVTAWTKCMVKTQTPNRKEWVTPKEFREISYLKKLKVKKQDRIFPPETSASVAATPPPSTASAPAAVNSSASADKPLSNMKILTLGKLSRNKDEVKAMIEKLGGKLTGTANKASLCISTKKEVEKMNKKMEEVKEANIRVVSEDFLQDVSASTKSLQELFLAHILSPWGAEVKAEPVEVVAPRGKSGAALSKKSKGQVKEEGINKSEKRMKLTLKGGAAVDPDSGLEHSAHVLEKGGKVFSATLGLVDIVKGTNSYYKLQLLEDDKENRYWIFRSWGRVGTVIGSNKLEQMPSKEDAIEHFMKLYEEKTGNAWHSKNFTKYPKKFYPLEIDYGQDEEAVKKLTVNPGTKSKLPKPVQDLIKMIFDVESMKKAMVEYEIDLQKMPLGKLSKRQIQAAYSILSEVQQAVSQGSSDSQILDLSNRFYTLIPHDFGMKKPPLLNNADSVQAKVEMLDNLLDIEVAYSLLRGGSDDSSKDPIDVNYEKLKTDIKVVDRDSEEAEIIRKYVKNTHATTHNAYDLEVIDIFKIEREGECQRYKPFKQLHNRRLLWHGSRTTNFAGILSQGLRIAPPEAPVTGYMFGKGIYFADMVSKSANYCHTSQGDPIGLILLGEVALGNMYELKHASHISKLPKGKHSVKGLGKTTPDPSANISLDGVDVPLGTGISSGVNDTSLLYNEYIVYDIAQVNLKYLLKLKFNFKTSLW

IC50 [nM] | SMILES
< 100 | CC(C)(C)C(=O)N1CCP(=O)(c2cc(Cc3n[nH]c(=O)c4ccccc34)ccc2F)CC1
< 100 | CC(C)P1(=O)CCN(C(=O)c2cc(Cc3n[nH]c(=O)c4ccccc34)ccc2F)CC1
< 100 | CCP1(=O)CCN(C(=O)c2cc(Cc3n[nH]c(=O)c4ccccc34)ccc2F)CC1
< 100 | O=c1[nH]nc(Cc2ccc(F)c(P3(=O)CCN(c4ncccn4)CC3)c2)c2ccccc12
< 100 | CC(C)CN1CCP(=O)(c2cc(Cc3n[nH]c(=O)c4ccccc34)ccc2F)CC1
< 100 | N#C/N=C(\N1CCC1)N1CCP(=O)(c2cc(Cc3n[nH]c(=O)c4ccccc34)ccc2F)CC1

SMILES | IC50 [nM]
CCOP1(=O)CCN(C(=O)c2cc(Cc3n[nH]c(=O)c4ccccc34)ccc2F)CC1 | < 100
